From patent US12023319B2, “Carboxylic acid aromatic amides” (priority 2016, dated 2024)

Biological target: T1, human Bradykinin B1 receptor (Homo sapiens, UniProt P46663)
T1 construct: host or cells: CHO-K1
T1 sequence (P46663 1-353): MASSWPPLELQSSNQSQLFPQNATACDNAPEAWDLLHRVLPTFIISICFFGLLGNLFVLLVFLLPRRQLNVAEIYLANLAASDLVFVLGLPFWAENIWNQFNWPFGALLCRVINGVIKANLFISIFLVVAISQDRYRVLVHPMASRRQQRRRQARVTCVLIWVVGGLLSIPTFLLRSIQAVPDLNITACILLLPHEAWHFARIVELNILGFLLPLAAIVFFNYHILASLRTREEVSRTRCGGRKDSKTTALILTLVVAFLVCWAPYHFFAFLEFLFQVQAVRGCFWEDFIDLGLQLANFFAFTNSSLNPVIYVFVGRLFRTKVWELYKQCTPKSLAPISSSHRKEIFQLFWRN
Experiment: Calcium flux assay (FLIPR), CHO-K1 cells expressing human Bradykinin B1 receptor, absence of 0.1% BSA (hB1 free IC50)
Type: cell-based
Settings: absence of 0.1% BSA in assay buffer
Protocol: The potency to inhibit the Bradykinin B1 receptor was determined for the Compound Examples of this invention in a cell-based fluorescent calcium-mobilisation assay. The assay measures the ability of Compound Examples to inhibit Bradykinin B1 receptor agonist-induced increase of intracellular free Ca^2+ in the cell line expressing Bradykinin B1 receptor. Specifically, calcium indicator-loaded cells are pre-incubated in the absence or presence of different concentrations of Compound Examples followed by the stimulation with a selective Bradykinin B1 receptor agonist peptide. The change of the intracellular Ca^2+ concentration is monitored with a fluorescent plate reader FLIPR^TETRA® (Molecular Devices).
Calcium Flux Assays (FLIPR) with Cells Expressing Human Bradykinin B1 Receptor (hB1)
CHO-K1 cell line expressing human Bradykinin B1 receptor is purchased from Euroscreen (Gosselies, Belgium, with reference name hB1-D1). The cells are grown in Nutrient Mixture Ham's F12 (Sigma) containing 10% Foetal bovine serum (Sigma) and 400 μg/mL G418 (Sigma), 5 μg/mL puromycin (Sigma).
The effect of BSA on the potency of endothelin receptor antagonists have been described in the prior art (Wu-Wong, J. R. et al. (1997), JPET 281: 791-798). The teaching can be applied in analogy to testing the potency of Bradykinin B1 receptor antagonist in the FLIPR assays.
For the calcium flux assay, 80% confluent cells are detached from the culture vessels with Versene (Gibco), and seeded into 384-well plates (Cell binding Surface; Corning, NY; #3683) at a density of 15,000 cells per well. Cells are seeded in a volume of 50 μL in medium without antibiotics and incubated overnight in a humidified atmosphere with 5% CO2 at 37° C. […] The calcium indicator loaded cells are incubated at 37° C. for 2 hrs. Extracellular dye is then removed and each well is filled with 45 μL of assay buffer. Cell plates are kept in dark until used. Compound examples are assayed at 8 concentrations in triplicate. Serial 10-fold dilutions in 100% DMSO are made at a 100-times higher concentration than the final concentration, and then diluted 1:10 in assay buffer. 5 μL of each diluted compound is added to the well of cell plates (yielding final concentration with 1% DMSO), and incubated for 30 min at 28° C. before the addition of Bradykinin B1 receptor agonist on the FLIPR instrument.
The addition of agonist 20 μl per well to the assay plate is carried out on the FLIPR instrument while continuously monitoring Ca2+-dependent fluorescence at 538 nm. A peptide antagonist Lys-(Des-Arg-Leu)-Bradykinin (Bachem, Brackley) at 20 µM is used to determine the full inhibition as control.
Peak fluorescence is used to determine the response to agonist obtained at each concentration of Compound Examples by the following equation: % Response=100*(RFU(compound)−RFU(control))/(RFU(DMSO)−RFU(control))
RFU means relative fluorescence units.
Control means full inhibition by the peptide antagonist Lys-(Des-Arg-Leu)-Bradykinin at 20 µM.
The response values are plotted against the logarithm of the compound concentrations. The Compound Examples are tested in triplicates per plate and mean values are plotted in Excel XLfit to determine IC50 values, percentage of maximal inhibition and the Hill slopes.

SMILES | IC50 [nM]
O=C(O)c1cc(NC(=O)C2(c3ccc(C(F)(F)F)cc3F)CC2)ccc1-c1cnn(C2CCCC2)c1 [Example 121, 2-(1-Cyclopentyl-1H-pyrazol-4-yl)-5-[({1-[2-fluoro-4-(trifluoromethyl)phenyl]cyclopropyl}carbonyl)amino]benzoic acid] | 18
O=C(O)c1cc(NC(=O)C2(c3cc(F)ccc3F)CC2)ccc1-c1cnn(C2CCC2)c1 [Example 55, 2-(1-Cyclobutyl-1H-pyrazol-4-yl)-5-({[1-(2,5-difluorophenyl)cyclopropyl]carbonyl}amino)benzoic acid] | 280
Cc1ccc(C2(C(=O)Nc3ccc(-c4cnn(C5CC5)c4)c(C(=O)O)c3)CC2)c(F)c1 [Example 150, 2-(1-Cyclopropyl-1H-pyrazol-4-yl)-5-({[1-(2-fluoro-4-methylphenyl)cyclopropyl]carbonyl}amino)benzoic acid] | 500
CC(C)(C)c1ccn(-c2ccc(NC(=O)C3(c4ccc(OC(F)(F)F)cc4F)CC3)cc2C(=O)O)n1 [Example 66, 2-(3-tert-Butyl-1H-pyrazol-1-yl)-5-[({1-[2-fluoro-4-(trifluoromethoxy)phenyl]cyclopropyl}carbonyl)amino]benzoic acid] | 2100
O=C(O)c1cc(NC(=O)C2(c3ccc(C(F)(F)F)cc3F)CC2)ccc1-c1cnc(C2CCC2)s1 [Example 148, 2-(2-Cyclobutyl-1,3-thiazol-5-yl)-5-[({1-[2-fluoro-4-(trifluoromethyl)phenyl]cyclopropyl}carbonyl)amino]benzoic acid] | 3.4
Cc1ccc(C2(C(=O)Nc3ccc(-c4cnn(C5CCC5)c4)c(C(=O)O)c3)CC2)cc1F [Example 81, 2-(1-Cyclobutyl-1H-pyrazol-4-yl)-5-({[1-(3-fluoro-4-methylphenyl)cyclopropyl]carbonyl}amino)benzoic acid] | 680
Cn1cc(-c2c(F)cc(NC(=O)C3(c4ccc(C(F)(F)F)cc4F)CC3)cc2C(=O)O)cn1 [Example 143, 3-Fluoro-5-[({1-[2-fluoro-4-(trifluoromethyl)phenyl]cyclopropyl}carbonyl)amino]-2-(1-methyl-1H-pyrazol-4-yl)benzoic acid] | 78
Cn1ncc2ccc(-c3ccc(NC(=O)C4(c5ccc(OC(F)(F)F)cc5F)CC4)cc3C(=O)O)cc21 [Example 164, 5-[({1-[2-Fluoro-4-(trifluoromethoxy)phenyl]cyclopropyl}carbonyl)amino]-2-(1-methyl-1H-indazol-6-yl)benzoic acid] | 120
CCn1cc(-c2ccc(NC(=O)C3(c4ccc(C(F)(F)F)cc4F)CC3)cc2C(=O)O)cn1 [Example 68, 2-(1-Ethyl-1H-pyrazol-4-yl)-5-[({1-[2-fluoro-4-(trifluoromethyl)phenyl]cyclopropyl}carbonyl)amino]benzoic acid] | 36
O=C(O)c1cc(NC(=O)C2(c3ccc(F)cc3Cl)CC2)ccc1-c1cnn(C2CCC2)c1 [Example 61, 5-({[1-(2-Chloro-4-fluorophenyl)cyclopropyl]carbonyl}amino)-2-(1-cyclobutyl-1H-pyrazol-4-yl)benzoic acid] | 200
CCc1ccc(-c2ccc(NC(=O)C3(c4ccc(C(F)(F)F)cc4F)CC3)cc2C(=O)O)cn1 [Example 160, 2-(6-Ethylpyridin-3-yl)-5-[({1-[2-fluoro-4-(trifluoromethyl)phenyl]cyclopropyl}carbonyl)amino]benzoic acid] | 21
O=C(O)c1cc(NC(=O)C2(c3c(F)cccc3Cl)CC2)ccc1-c1cnn(C2CCC2)c1 [Example 62, 5-({[1-(2-Chloro-6-fluorophenyl)cyclopropyl]carbonyl}amino)-2-(1-cyclobutyl-1H-pyrazol-4-yl)benzoic acid] | 89
CC(C)(C)n1cc(-c2c(F)cc(NC(=O)C3(c4ccc(C(F)(F)F)cc4F)CC3)cc2C(=O)O)cn1 [Example 93, 2-(1-tert-Butyl-1H-pyrazol-4-yl)-3-fluoro-5-[({1-[2-fluoro-4-(trifluoromethyl)phenyl]cyclopropyl}carbonyl)amino]benzoic acid] | 61
O=C(O)c1cc(NC(=O)C2(c3ccc(C(F)(F)F)cc3F)CC2)ccc1-c1cn(C2CCC2)nc1F [Example 45, 2-(1-Cyclobutyl-3-fluoro-1H-pyrazol-4-yl)-5-[({1-[2-fluoro-4-(trifluoromethyl)phenyl]cyclopropyl}carbonyl)amino]benzoic acid] | 55

Continued by falling IC50, values first:

IC50 [nM] | SMILES
2500 | O=C(O)c1cc(NC(=O)C2(c3ccc(F)cn3)CC2)ccc1-c1cnn(C2CCC2)c1 [Example 82, 2-(1-Cyclobutyl-1H-pyrazol-4-yl)-5-({[1-(5-fluoropyridin-2-yl)cyclopropyl]carbonyl}amino)benzoic acid]
580 | Cc1cc(NC(=O)C2(c3ccc(OC(F)(F)F)cc3F)CC2)cc(C(=O)O)c1-c1ccc(C(F)F)nc1 [Example 110, 2-[6-(Difluoromethyl)pyridin-3-yl]-5-[({1-[2-fluoro-4-(trifluoromethoxy)phenyl]cyclopropyl}carbonyl)amino]-3-methylbenzoic acid]
300 | O=C(O)c1cc(NC(=O)C2(c3ccc(OC(F)(F)F)cc3)CC2)ccc1-c1cnn(C2CCC2)c1 [Example 78, 2-(1-Cyclobutyl-1H-pyrazol-4-yl)-5-[({1-[4-(trifluoromethoxy)phenyl]cyclopropyl}carbonyl)amino]benzoic acid]
85 | O=C(O)c1cc(NC(=O)C2(c3ccc(F)c(Cl)c3)CC2)ccc1-c1cnn(C2CCC2)c1 [Example 56, 5-({[1-(3-Chloro-4-fluorophenyl)cyclopropyl]carbonyl}amino)-2-(1-cyclobutyl-1H-pyrazol-4-yl)benzoic acid]
60 | O=C(O)c1cc(NC(=O)C2(c3ccc(C(F)(F)F)c(F)c3)CC2)ccc1-c1cnn(C2CCC2)c1 [Example 79, 2-(1-Cyclobutyl-1H-pyrazol-4-yl)-5-[({1-[3-fluoro-4-(trifluoromethyl)phenyl]cyclopropyl}carbonyl)amino]benzoic acid]
29 | CC(C)Cn1cc(-c2c(F)cc(NC(=O)C3(c4ccc(C(F)(F)F)cc4F)CC3)cc2C(=O)O)cn1 [Example 92, 3-Fluoro-5-[({1-[2-fluoro-4-(trifluoromethyl)phenyl]cyclopropyl}carbonyl)amino]-2-(1-isobutyl-1H-pyrazol-4-yl)benzoic acid]
20 | O=C(O)c1cc(NC(=O)C2(c3ccc(C(F)(F)F)cc3F)CC2)cc(F)c1-c1ccc(C(F)F)nc1 [Example 94, 2-[6-(Difluoromethyl)pyridin-3-yl]-3-fluoro-5-[({1-[2-fluoro-4-(trifluoromethyl)phenyl]cyclopropyl}carbonyl)amino]benzoic acid]
14 | O=C(O)c1cc(NC(=O)C2(c3ccc(C(F)(F)F)cc3F)CC2)cc(F)c1-c1cnn(CC2CC2)c1 [Example 126, 2-[1-(Cyclopropylmethyl)-1H-pyrazol-4-yl]-3-fluoro-5-[({1-[2-fluoro-4-(trifluoromethyl)phenyl]cyclopropyl}carbonyl)amino]benzoic acid]
3.4 | O=C(O)c1cc(NC(=O)C2(c3ccc(C(F)(F)F)cc3F)CC2)ccc1-c1cnc(C2CCCC2)s1 [Example 167, 2-(2-Cyclopentyl-1,3-thiazol-5-yl)-5-[({1-[2-fluoro-4-(trifluoromethyl)phenyl]cyclopropyl}carbonyl)amino]benzoic acid]
3.2 | O=C(O)c1cc(NC(=O)C2(c3ccc(OC(F)(F)F)cc3F)CC2)ccc1-c1cnc(C2CCC2)s1 [Example 149, 2-(2-Cyclobutyl-1,3-thiazol-5-yl)-5-[({1-[2-fluoro-4-(trifluoromethoxy)phenyl]cyclopropyl}carbonyl)amino]benzoic acid]
